Reference: ChEMBL document CHEMBL4425146, “Synthesis and biological evaluation of N(9)-substituted harmine derivatives as potential anticancer agents” (Bioorg Med Chem Lett, 2016)

Columns and labels:
[1] = system: MCF7; assay: Cytotoxicity against human MCF7 cells assessed as inhibition of cell growth after 48 hrs by MTT assay; assay type: functional, cell-based; settings: MCF7, 48 h
[2] = system: A549; assay: Cytotoxicity against human A549 cells assessed as inhibition of cell growth after 48 hrs by MTT assay; assay type: functional, cell-based; settings: A549, 48 h
[3] = system: SMMC-7721; assay: Cytotoxicity against human SMMC7721 cells assessed as inhibition of cell growth after 48 hrs by MTT assay; assay type: functional, cell-based; settings: SMMC-7721, 48 h
[4] = system: SGC-7901; assay: Cytotoxicity against human SGC7901 cells assessed as inhibition of cell growth after 48 hrs by MTT assay; assay type: functional, cell-based; settings: SGC-7901, 48 h
[5] = system: A549; assay: Induction of apoptosis in human A549 cells assessed as late apoptotic cells at 0.5 uM after 48 hrs by Annexin V-FITC/propidium iodide staining based flow cytometry (reference value: 2.70 %); assay type: functional
[6] = system: A549; assay: Induction of apoptosis in human A549 cells assessed as viable cells at 0.1 uM after 48 hrs by Annexin V-FITC/propidium iodide staining based flow cytometry (reference value: 96.08 %); assay type: functional; settings: A549, 48 h, read-out: Activity
[7] = system: A549; assay: Induction of apoptosis in human A549 cells after 48 hrs by Annexin V-FITC/propidium iodide staining based flow cytometry; assay type: functional, cell-based
[8] = system: A549; assay: Cell cycle arrest in human A549 cells assessed as accumulation at G2/M phase at 1 uM after 48 hrs by propidium iodide staining based flow cytometry (reference value: 14.62%); assay type: functional
[9] = system: A549; assay: Cell cycle arrest in human A549 cells assessed as accumulation at sub-G1 phase at 1 uM after 48 hrs by propidium iodide staining based flow cytometry (reference value: 2.78 %); assay type: functional
[10] = system: A549; assay: Cell cycle arrest in human A549 cells assessed as accumulation at sub-G1 phase at 0.5 uM after 48 hrs by propidium iodide staining based flow cytometry (reference value: 2.78 %); assay type: functional
[11] = system: A549; assay: Cell cycle arrest in human A549 cells assessed as accumulation at S phase at 1 uM after 48 hrs by propidium iodide staining based flow cytometry (reference value: 30.85 %); assay type: functional
[12] = system: A549; assay: Cell cycle arrest in human A549 cells assessed as accumulation at S phase at 0.1 uM after 48 hrs by propidium iodide staining based flow cytometry (reference value: 30.85 %); assay type: functional
[13] = system: A549; assay: Cell cycle arrest in human A549 cells assessed as accumulation at G0/G1 phase at 0.5 uM after 48 hrs by propidium iodide staining based flow cytometry (reference value: 53.54 %); assay type: functional
[14] = system: A549; assay: Cell cycle arrest in human A549 cells assessed as accumulation at S phase at 0.5 uM after 48 hrs by propidium iodide staining based flow cytometry (reference value: 30.85 %); assay type: functional
[15] = system: A549; assay: Induction of apoptosis in human A549 cells assessed as early apoptotic cells at 1 uM after 48 hrs by Annexin V-FITC/propidium iodide staining based flow cytometry (reference value: 0.57 %); assay type: functional
[16] = system: A549; assay: Induction of apoptosis in human A549 cells assessed as viable cells at 0.5 uM after 48 hrs by Annexin V-FITC/propidium iodide staining based flow cytometry (reference value: 96.08 %); assay type: functional; settings: A549, 48 h, read-out: Activity
[17] = system: A549; assay: Cell cycle arrest in human A549 cells assessed as accumulation at sub-G1 phase after 48 hrs by propidium iodide staining based flow cytometry; assay type: functional
[18] = system: A549; assay: Induction of apoptosis in human A549 cells assessed as early apoptotic cells at 0.1 uM after 48 hrs by Annexin V-FITC/propidium iodide staining based flow cytometry (reference value: 0.57 %); assay type: functional
[19] = system: A549; assay: Cell cycle arrest in human A549 cells assessed as accumulation at G2/M phase at 0.1 uM after 48 hrs by propidium iodide staining based flow cytometry (reference value: 14.62%); assay type: functional
[20] = system: A549; assay: Cell cycle arrest in human A549 cells assessed as accumulation at sub-G1 phase at 0.1 uM after 48 hrs by propidium iodide staining based flow cytometry (reference value: 2.78 %); assay type: functional
[21] = system: A549; assay: Cell cycle arrest in human A549 cells assessed as accumulation at G2/M phase after 48 hrs by propidium iodide staining based flow cytometry; assay type: functional
[22] = system: A549; assay: Induction of apoptosis in human A549 cells assessed as late apoptotic cells at 1 uM after 48 hrs by Annexin V-FITC/propidium iodide staining based flow cytometry (reference value: 2.70 %); assay type: functional
[23] = system: A549; assay: Induction of apoptosis in human A549 cells assessed as late apoptotic cells at 0.1 uM after 48 hrs by Annexin V-FITC/propidium iodide staining based flow cytometry (reference value: 2.70 %); assay type: functional
[24] = system: A549; assay: Cell cycle arrest in human A549 cells assessed as accumulation at G2/M phase at 0.5 uM after 48 hrs by propidium iodide staining based flow cytometry (reference value: 14.62%); assay type: functional
[25] = system: A549; assay: Induction of apoptosis in human A549 cells assessed as early apoptotic cells at 0.5 uM after 48 hrs by Annexin V-FITC/propidium iodide staining based flow cytometry (reference value: 0.57 %); assay type: functional
[26] = system: A549; assay: Cell cycle arrest in human A549 cells assessed as accumulation at G0/G1 phase at 1 uM after 48 hrs by propidium iodide staining based flow cytometry (reference value: 53.54 %); assay type: functional
[27] = system: A549; assay: Induction of apoptosis in human A549 cells assessed as viable cells at 1 uM after 48 hrs by Annexin V-FITC/propidium iodide staining based flow cytometry (reference value: 96.08 %); assay type: functional; settings: A549, 48 h, read-out: Activity
[28] = system: A549; assay: Cell cycle arrest in human A549 cells assessed as accumulation at G0/G1 phase at 0.1 uM after 48 hrs by propidium iodide staining based flow cytometry (reference value: 53.54 %); assay type: functional
[29] = system: MCF7; assay: Cytotoxicity against human MCF7 cells assessed as inhibition of cell growth; assay type: functional, cell-based
[30] = system: HeLa; assay: Cytotoxicity against human HeLa cells assessed as inhibition of cell growth by MTT assay; assay type: functional, cell-based
[31] = system: P338; assay: Cytotoxicity against mouse […] cells assessed as inhibition of cell growth after 3 days by MTT assay; assay type: functional, cell-based; settings: 72 h
[32] = system: HL-60; assay: Cytotoxicity against human HL60 cells assessed as inhibition of cell growth after 3 days by MTT assay; assay type: functional, cell-based; settings: HL-60, 72 h
[33] = system: COLO 205; assay: Cytotoxicity against human COLO205 cells assessed as inhibition of cell growth after 48 hrs by MTT assay; assay type: functional, cell-based; settings: COLO 205, 48 h
[34] = system: HL-60; assay: Cytotoxicity against human HL60 cells assessed as inhibition of cell growth after 48 hrs by MTT assay; assay type: functional, cell-based; settings: HL-60, 48 h

CCCCCCn1c2cc(OC)ccc2c2ccnc(C)c21
IC50 [1]: > 50 µM | IC50 [2]: 4.89 µM | IC50 [3]: 14.4 µM | IC50 [4]: 13.3 µM

CCCCn1c2cc(OC)ccc2c2ccnc(C)c21
IC50 [1]: > 50 µM | IC50 [2]: 6.09 µM | IC50 [3]: 28.6 µM | IC50 [4]: 11.3 µM

COc1ccc2c3ccnc(C)c3n(Cc3ccccc3)c2c1
IC50 [1]: > 50 µM | IC50 [2]: 7.49 µM | IC50 [3]: 45.6 µM | IC50 [4]: 38.2 µM

CCCCCn1c2cc(OC)ccc2c2ccnc(C)c21
IC50 [1]: > 50 µM | IC50 [2]: 6.37 µM | IC50 [3]: 17.2 µM | IC50 [4]: 20.5 µM

COc1ccc2c3ccnc(C)c3n(C(=O)c3ccccc3)c2c1
IC50 [1]: > 50 µM | IC50 [2]: 2.81 µM | IC50 [3]: > 50 µM | IC50 [4]: 7.69 µM

COc1ccc2c3ccnc(C)c3n(S(=O)(=O)c3ccc(C)cc3)c2c1
Activity [5]: 42.79% | viability at 0.1 µM [6]: 73.1% | Activity [7]: Dose-dependent effect | Activity [8]: 36.64% | Activity [9]: 24.88% | Activity [10]: 21.15% | Activity [11]: 25.9% | Activity [12]: 30.27% | Activity [13]: 36.99% | Activity [14]: 31.93% | Activity [15]: 17.59% | viability at 0.5 µM [16]: 45% | Activity [17]: Dose-dependent effect | IC50 [1]: > 50 µM | Activity [18]: 2.68% | Activity [19]: 16.42% | Activity [20]: 8.63% | IC50 [2]: 0.48 µM | Activity [21]: Dose-dependent effect | Activity [22]: 54.11% | Activity [23]: 18.76% | Activity [24]: 31.09% | Activity [25]: 11.5% | Activity [26]: 36.46% | viability at 1 µM [27]: 28.2% | Activity [28]: 53.31% | IC50 [3]: > 50 µM | IC50 [4]: 1.56 µM

COc1ccc2c3ccnc(C)c3n(Cc3ccc(F)cc3)c2c1
IC50 [1]: > 50 µM | IC50 [2]: 8.73 µM | IC50 [3]: > 50 µM | IC50 [4]: 7.21 µM

COc1ccc2c3ccnc(C)c3n(CCCCCCBr)c2c1
IC50 [1]: 0.45 µM | IC50 [2]: 0.87 µM | IC50 [3]: 3.79 µM | IC50 [4]: 6.94 µM

COc1ccc2c3ccnc(C)c3n(CCCCCBr)c2c1
IC50 [1]: 0.76 µM | IC50 [2]: 4.8 µM | IC50 [3]: 6.49 µM | IC50 [4]: 9.34 µM

COc1ccc2c3ccnc(C)c3n(Cc3ccccc3F)c2c1
IC50 [1]: > 50 µM | IC50 [2]: 5.67 µM | IC50 [3]: > 50 µM | IC50 [4]: 43.6 µM

COc1ccc2c3ccnc(C)c3n(Cc3ccccc3C)c2c1
IC50 [1]: > 50 µM | IC50 [2]: 8.34 µM | IC50 [3]: 39.5 µM | IC50 [4]: 17.2 µM

CCCn1c2cc(OC)ccc2c2ccnc(C)c21
IC50 [1]: > 50 µM | IC50 [2]: 9.66 µM | IC50 [3]: 48.8 µM | IC50 [4]: 19.4 µM

OCc1ccc2c(c1)c1ccccc1n2Cc1ccc(Cl)nc1
IC50 [29]: 20 to 30 µM

COc1ccc2c3ccnc(C)c3n(C)c2c1
IC50 [1]: > 50 µM | IC50 [2]: 4.97 µM | IC50 [3]: 43.6 µM | IC50 [4]: 9.67 µM

COc1ccc2c3ccnc(C)c3n(Cc3cc(F)cc(F)c3)c2c1
IC50 [1]: > 50 µM | IC50 [2]: 18.4 µM | IC50 [3]: > 50 µM | IC50 [4]: 6.47 µM

COc1ccc2c3ccnc(C)c3n(CCCCCl)c2c1
IC50 [1]: 2.94 µM | IC50 [2]: 8.73 µM | IC50 [3]: 17.9 µM | IC50 [4]: 7.21 µM

COc1ccc2c3ccnc(C)c3n(CCCc3ccccc3)c2c1
IC50 [30]: 24 µM

COc1cccc2c1C(=O)c1c(O)c3c(c(O)c1C2=O)C[C@@](O)(C(=O)CO)C[C@@H]3O[C@H]1C[C@H](N)[C@H](O)[C@H](C)O1 [DOXORUBICIN]
IC50 [1]: 0.83 µM | IC50 [2]: 0.76 µM | IC50 [3]: 1.39 µM

COc1ccc2c3ccnc(C)c3n(Cc3ccc(C)cc3)c2c1
IC50 [1]: > 50 µM | IC50 [2]: 3.89 µM | IC50 [3]: 21.3 µM | IC50 [4]: 5.29 µM

COc1ccc2c3ccnc(C)c3n(S(=O)(=O)c3ccccc3)c2c1
IC50 [1]: > 50 µM | IC50 [2]: 0.83 µM | IC50 [3]: > 50 µM | IC50 [4]: 5.95 µM

CCn1c2cc(OC)ccc2c2ccnc(C)c21
IC50 [1]: > 50 µM | IC50 [2]: 26.4 µM | IC50 [3]: 24 µM | IC50 [4]: 29.6 µM

CCCCCCCCCCCC(=O)n1c2cc(OC)ccc2c2ccnc(C)c21
IC50 [1]: > 50 µM | IC50 [2]: 14.6 µM | IC50 [3]: 49.1 µM | IC50 [4]: 8.76 µM

COc1ccc2c(c1)[nH]c1c(C)nccc12 [HARMINE]
IC50 [1]: 68.3 µM | IC50 [2]: 42.2 µM | IC50 [3]: 59.4 µM | IC50 [4]: 40.8 µM

COc1ccc2c3ccnc(C)c3n(C(C)=O)c2c1
IC50 [1]: > 50 µM | IC50 [2]: 1.27 µM | IC50 [3]: > 50 µM | IC50 [4]: 6.39 µM

CCCCCCCCn1c2cc(OC)ccc2c2ccnc(C)c21
IC50 [1]: > 50 µM | IC50 [2]: 4.77 µM | IC50 [3]: 6.95 µM | IC50 [4]: 6.68 µM

COc1ccc(S(=O)(=O)Nc2cccnc2Nc2ccc(O)cc2)cc1 [ABT-751]
IC50 [31]: 0.16 µM | IC50 [32]: 0.2 µM

COc1ccc2c3ccnc(C)c3n(CCCCBr)c2c1
IC50 [1]: 0.85 µM | IC50 [2]: 12.2 µM | IC50 [3]: 8.34 µM | IC50 [4]: 10.6 µM

COc1cc(Cn2c3ccc(C(C)=O)cc3c3ccnc(C)c32)cc(OC)c1OC
IC50 [33]: 0.52 µM | IC50 [34]: 0.03 µM

COc1ccc2c3ccnc(C)c3n(C(=O)c3ccc(C)cc3)c2c1
IC50 [1]: > 50 µM | IC50 [2]: 1.33 µM | IC50 [3]: > 50 µM | IC50 [4]: 2.88 µM
